Data from ChEMBL document CHEMBL1150895, “Spongiacidins A-D, new bromopyrrole alkaloids from hymeniacidon sponge” (J Nat Prod, 1998).
pIC50: −log10 of the molar value.

Experiments:
[1] = target: Cyclin-dependent kinase 4 (Homo sapiens, UniProt P11802); assay: Inhibition of CDK4
[2] = target: Receptor tyrosine-protein kinase erbB-2 (Homo sapiens, UniProt P04626); assay: Inhibition of c-erbB-2
Receptor tyrosine-protein kinase erbB-2, sequence (P04626 whole entry): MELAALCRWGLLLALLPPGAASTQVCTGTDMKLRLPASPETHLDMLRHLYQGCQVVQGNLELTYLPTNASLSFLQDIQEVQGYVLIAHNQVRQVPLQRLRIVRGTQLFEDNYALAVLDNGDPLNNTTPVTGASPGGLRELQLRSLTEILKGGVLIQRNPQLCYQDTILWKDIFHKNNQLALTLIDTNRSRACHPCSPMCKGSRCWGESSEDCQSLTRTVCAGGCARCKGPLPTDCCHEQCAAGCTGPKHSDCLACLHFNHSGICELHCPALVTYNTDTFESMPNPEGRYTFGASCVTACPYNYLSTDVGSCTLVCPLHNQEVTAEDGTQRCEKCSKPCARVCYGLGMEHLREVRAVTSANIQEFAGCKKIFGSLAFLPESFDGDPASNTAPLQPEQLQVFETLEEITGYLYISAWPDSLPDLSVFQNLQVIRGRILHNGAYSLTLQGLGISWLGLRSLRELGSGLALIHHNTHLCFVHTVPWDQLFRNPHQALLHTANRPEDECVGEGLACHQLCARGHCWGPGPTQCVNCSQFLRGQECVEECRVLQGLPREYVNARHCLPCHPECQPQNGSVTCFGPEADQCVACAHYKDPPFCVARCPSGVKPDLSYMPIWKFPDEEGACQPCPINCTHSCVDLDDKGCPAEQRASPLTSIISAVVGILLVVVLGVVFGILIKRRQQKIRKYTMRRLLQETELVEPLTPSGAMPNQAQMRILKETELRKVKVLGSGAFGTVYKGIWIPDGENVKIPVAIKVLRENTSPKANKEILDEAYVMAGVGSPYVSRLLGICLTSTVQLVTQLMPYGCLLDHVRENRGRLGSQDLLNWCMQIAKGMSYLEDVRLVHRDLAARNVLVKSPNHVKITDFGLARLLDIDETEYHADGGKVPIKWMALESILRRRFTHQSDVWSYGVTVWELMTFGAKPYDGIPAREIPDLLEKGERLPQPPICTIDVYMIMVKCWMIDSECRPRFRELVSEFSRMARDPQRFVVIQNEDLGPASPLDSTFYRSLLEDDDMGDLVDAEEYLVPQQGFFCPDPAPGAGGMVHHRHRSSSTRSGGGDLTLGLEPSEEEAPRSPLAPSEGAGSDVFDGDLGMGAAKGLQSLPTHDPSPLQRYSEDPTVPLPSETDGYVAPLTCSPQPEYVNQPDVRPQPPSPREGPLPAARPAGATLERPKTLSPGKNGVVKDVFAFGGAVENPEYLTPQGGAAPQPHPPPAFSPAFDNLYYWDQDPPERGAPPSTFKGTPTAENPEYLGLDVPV

Cyclin-dependent kinase 4, sequence (P11802 whole entry): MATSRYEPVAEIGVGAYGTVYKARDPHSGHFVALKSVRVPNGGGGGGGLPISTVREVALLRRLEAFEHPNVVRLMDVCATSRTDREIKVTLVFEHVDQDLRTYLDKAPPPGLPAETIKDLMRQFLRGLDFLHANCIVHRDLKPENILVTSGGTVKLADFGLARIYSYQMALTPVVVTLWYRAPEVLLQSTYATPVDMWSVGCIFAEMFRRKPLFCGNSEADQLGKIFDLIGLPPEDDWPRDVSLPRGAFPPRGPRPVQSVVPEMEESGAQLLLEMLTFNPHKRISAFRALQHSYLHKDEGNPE

Structure (SMILES)	pIC50 [1]	pIC50 [2]
O=C1NC(=O)/C(=C2\CCNC(=O)c3[nH]c(Br)cc32)N1 [SPONGIACIDIN D]	< 3.81	< 3.81
O=C1NC(=O)/C(=C2\CCNC(=O)c3[nH]ccc32)N1 [SPONGIACIDIN C]	< 3.69	< 3.69
